# In PubChem BioAssay AID1645866 (Buhrlage Lab, Dana-Farber Cancer Institute and Novartis …, 2021):
# Calls of active or inactive are those of the source.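 The calls were made as follows: active = in confirmatory dose-response testing, peak deubiquitinase inhibition of 30% or more; inactive = the rest.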
# Target: Ubiquitin carboxyl-terminal hydrolase 28 (Homo sapiens) (UniProt Q96RU2)
# Assay: Concentration-response biochemical assay confirming initial hits as inhibitors of ubiquitin-specific protease 28 (AID 1645866)
# Conditions: purified USP28, ubiquitin-rhodamine fluorescence, 30 min
# Sequence of Ubiquitin carboxyl-terminal hydrolase 28 (Homo sapiens) (Q96RU2 whole entry, looked up): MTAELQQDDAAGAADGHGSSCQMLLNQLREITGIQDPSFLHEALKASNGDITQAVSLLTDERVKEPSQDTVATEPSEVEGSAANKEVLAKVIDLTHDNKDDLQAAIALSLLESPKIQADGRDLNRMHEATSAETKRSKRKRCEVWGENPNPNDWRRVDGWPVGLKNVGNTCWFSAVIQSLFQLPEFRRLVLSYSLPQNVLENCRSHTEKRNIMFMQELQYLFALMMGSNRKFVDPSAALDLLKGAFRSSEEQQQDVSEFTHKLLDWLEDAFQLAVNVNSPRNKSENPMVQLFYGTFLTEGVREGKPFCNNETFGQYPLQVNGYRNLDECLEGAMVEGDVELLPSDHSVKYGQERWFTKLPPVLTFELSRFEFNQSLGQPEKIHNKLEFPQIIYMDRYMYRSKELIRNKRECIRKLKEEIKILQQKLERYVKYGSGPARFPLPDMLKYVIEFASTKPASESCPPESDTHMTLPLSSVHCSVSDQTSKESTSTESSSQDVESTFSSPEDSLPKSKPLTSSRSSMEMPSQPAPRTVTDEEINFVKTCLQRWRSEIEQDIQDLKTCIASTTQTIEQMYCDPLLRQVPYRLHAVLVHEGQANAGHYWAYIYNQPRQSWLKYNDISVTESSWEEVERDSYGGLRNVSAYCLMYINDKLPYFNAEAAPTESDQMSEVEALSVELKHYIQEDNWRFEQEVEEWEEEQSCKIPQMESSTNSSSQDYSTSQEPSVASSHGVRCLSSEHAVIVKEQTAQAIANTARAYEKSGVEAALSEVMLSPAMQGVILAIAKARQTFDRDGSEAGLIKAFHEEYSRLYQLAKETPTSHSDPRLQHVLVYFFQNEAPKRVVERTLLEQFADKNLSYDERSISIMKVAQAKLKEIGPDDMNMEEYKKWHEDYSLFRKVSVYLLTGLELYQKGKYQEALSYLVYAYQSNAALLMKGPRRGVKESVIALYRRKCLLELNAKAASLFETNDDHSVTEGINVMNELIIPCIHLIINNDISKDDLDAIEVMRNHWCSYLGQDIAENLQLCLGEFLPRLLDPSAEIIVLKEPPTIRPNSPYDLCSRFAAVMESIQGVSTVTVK
row,SMILES,IC50
1,O=S(=O)(Nc1ccc(O)cc1)c1ccc2oc3ccc(S(=O)(=O)Nc4ccc(O)cc4)cc3c2c1,22.3 µM
2,Nc1c(-c2ccc(Cl)cc2)cnc2nc(Sc3ncc(C(F)(F)F)cc3Cl)nn12,> 50 µM (inactive)
3,COC(=O)c1c(C)[nH]c(C(=O)C(C)OC(=O)CCC2CCCC2)c1C (stereo not given),1.47 µM
4,C[C@H](NC(=O)Cc1ccccc1F)c1nc2cc(-c3ccccc3F)ncn2n1,> 50 µM (inactive)
5,COc1ccc(C(=O)Nc2ccc3c(c2)Sc2ncccc2C(=O)N3C)cn1,> 50 µM (inactive)
6,COc1ccc2c(c1)CCc1c-2n[nH]c1C(=O)Nc1cc(C)on1,12.2 µM
7,Cn1c(=O)/c(=C/c2ccccc2)[nH]c(=O)/c1=C/c1ccccc1,10.2 µM
8,O=C(CSc1ccc(-c2cccc([N+](=O)[O-])c2)nn1)Nc1cccc(F)c1,2.23 µM
9,Cn1c(=O)c2c(ncn2CC(=O)NC2CCCc3ccccc32)n(C)c1=O (stereo not given),> 50 µM (inactive)
10,COC(=O)c1ccc2c(=O)n(CCCCCC(=O)NCCc3ccc(S(N)(=O)=O)cc3)c(=O)[nH]c2c1,8.65 µM
11,CSc1nc(SCC(N)=O)c2c3c(sc2n1)COC(C)(C)C3,27.3 µM
12,Cc1cccc(CNC(=O)C2CCCN(S(=O)(=O)Cc3ccc(F)cc3)C2)c1 (stereo not given),26.6 µM
13,O=S(=O)(O)c1cc2cc3ccccc3cc2[nH]1,> 50 µM (inactive)
14,COc1ccc2nc(Nc3nc(-c4cnc(N5CCOCC5)nc4C)cc(=O)[nH]3)nc(C)c2c1,> 50 µM (inactive)
15,O=C(c1cnccn1)N1CCc2[nH]c3ccc(F)cc3c2C1,> 50 µM (inactive)
16,Cc1c(C(=O)Nc2ccc(-c3nnc4n3CCCCC4)cc2)oc2c1ccc1ccccc12,4.09 µM
17,O=C(NCc1ccc2c(c1)OCO2)c1nn(C23CC4CC(CC(C4)C2)C3)cc1[N+](=O)[O-],> 50 µM (inactive)
18,CC(C)OC(=O)c1cc2c(ccn2-c2ccc(F)cc2)n1CC(=O)NC1CCCCC1,27.5 µM
19,FC(F)(F)c1cccc(N2CCN(c3nc4ccccc4n4nnnc34)CC2)c1,> 50 µM (inactive)
20,Cn1ncc2c(=O)n(Cc3cccc(Cl)c3)cnc21,12.9 µM
21,O=S(=O)(c1ccc(F)cc1)N1CCCC1c1ccnc(Nc2cnccn2)n1 (stereo not given),> 50 µM (inactive)
22,CCOc1ccc(S(=O)(=O)Nc2ccc[nH]c2=O)cc1,> 50 µM (inactive)
23,COc1ccc(OC)c(NC(=O)c2cc(Cl)ccc2OC)c1,1.66 µM
24,CN(C)C1CCN(C(=O)c2cc(-c3ccn(-c4ccccc4)n3)n3ccccc23)CC1,> 50 µM (inactive)
25,COc1ccc(CN=C2NS(=O)(=O)C(c3ccc(F)cc3)=C2C)cc1OC,23 µM

row,SMILES,IC50
1,CS(=O)(=O)c1ccc(NC(=O)C2CN(c3nc4c(F)cccc4s3)C2)cc1,21.3 µM
2,Cc1ccc(C)c(NC(=O)CCc2nc(CSc3nc4ccccc4o3)no2)c1,13.4 µM
3,CC1(C)Cc2c(sc3nc(Cc4ccccc4)nc(SCC(=O)Nc4ccccc4)c23)CO1,2.4 µM
4,O=C(Cc1c[nH]c2ccccc12)Nc1nc2ccccc2s1,21.2 µM
5,O=C(COC(=O)c1ccc(NS(=O)(=O)c2ccc3c(c2)OCCO3)cc1)NCc1ccc(Cl)cc1,6.76 µM
6,Cc1ccc(C(=O)NCc2ccc(C(=O)Nc3ccc(C)c(C)c3)o2)cc1,28.2 µM
7,Cn1cc(-c2cnc(-c3cccc(F)c3)nc2)cc1C(=O)NCc1cccnc1,36.8 µM
8,Cc1nn(-c2ccccc2)c(C)c1C(=O)OCC(=O)Nc1cccc(C#N)c1,15.9 µM
9,CC1(C)C[C@@H](O)[C@]2(C)CC[C@]3(C)C(=CCC4[C@@]5(C)CC[C@H](O)[C@](C)(CO)[C@@H]5CC[C@]43C)[C@@H]2C1 (stereo not given in full),> 50 µM (inactive)
10,c1coc(CNc2nc3ccccc3n3nnnc23)c1,> 50 µM (inactive)
11,CC1CCN(S(=O)(=O)c2ccc(C(=O)Nc3ccc(S(N)(=O)=O)cc3)cc2)CC1,30.1 µM
12,CN(C)c1ccc(CCN2CCc3nc4cccnc4cc3C2)cc1,> 50 µM (inactive)
13,O=C(Cn1cc(C(=O)C2CC2)c2ccccc21)NCc1ccc2c(c1)OCO2,24.9 µM
14,COc1cc(Cl)c(C)cc1NC(=O)Cn1c(=O)n(CC(=O)NCc2ccco2)c(=O)c2ccccc21,3.4 µM
15,Cc1cc(C)c2cc(C(=O)NC3CCN(Cc4ccccc4)CC3)[nH]c2c1,13.8 µM
16,COc1ccc(CNc2nn3c(-c4cncc(OC)c4)cnc3s2)cc1,2.61 µM
17,Cc1ccc2oc(=O)c(S(=O)(=O)N3CCCCC3)cc2c1,23.2 µM
18,COc1ccc(OC)c(-c2cn3ccn(-c4ccc5c(c4)CCC5)c(=O)c3n2)c1,> 50 µM (inactive)
19,COc1ccc(-c2cc3nc([C@H](C)NC(=O)Cc4cccc(F)c4)nn3cn2)cc1,13 µM
20,Cc1nc(SCC#N)c2oc3ccccc3c2n1,40 µM
21,COc1ccc(C(=O)Nc2sc3c(c2C(=O)NCc2cccnc2)CCCC3)cc1,11.8 µM
22,Nc1nc(OCc2ccccc2)c2[nH]c(/C=C/c3cccs3)nc2n1,24.9 µM
23,O=C(NCCc1ccccc1F)c1cn2cc(Cl)ccc2n1,31.8 µM
24,O=C(CCCn1c(=O)[nH]c2cc(Cl)ccc2c1=O)N1CCc2ccccc2C1,19.4 µM
25,CO/C=C/C(=O)c1cc2cnc3c(=N)cc(NC(C)=O)c([nH]1)c23,> 50 µM (inactive)

row,SMILES,IC50
1,O=c1c2c(ccn1Cc1cc(F)ccc1F)ccn2Cc1cccnc1,7.21 µM
2,CCc1cccc2c(C(=O)COc3ccc(C#N)cc3)c[nH]c12,15.1 µM
3,Cc1ccc2c(c1)N(C)C(=O)c1cc(NC(=O)c3ccc(F)cc3)ccc1O2,4.21 µM
4,COc1ccc(NC(=O)CSc2oc(-c3ccc(C)cc3)nc2S(=O)(=O)c2ccc(Br)cc2)c(OC)c1,> 50 µM (inactive)
5,CCCCCCCCCC(CCCCCCCCCC(=O)O)O[C@H]1O[C@@H](COC(C)=O)[C@H](O)[C@@H](O)[C@H]1OC(=O)CC(=O)O (stereo not given in full),18.4 µM
6,Cc1cccc(N2C(=O)/C(=C\c3ccc4c(c3)OCCO4)c3ccccc3C2=O)c1,19.2 µM
7,COCCN(C1CCN(CCc2ccc(Cl)cc2)CC1)S(=O)(=O)c1cccc2cccnc12,> 50 µM (inactive)
8,O=C(COc1cccc(-n2cnnn2)c1)Nc1ccc2c(c1)OCCO2,31.4 µM
9,CS(=O)(=O)N1CCCc2cc(C(=O)Nc3ccc4c(c3)OCO4)ccc21,4.54 µM
10,COc1ccc(C(C(=O)NCc2ccccc2)N(C(=O)CCN2CCc3ccccc32)c2ccc(C)c(C)c2)cc1 (stereo not given),> 50 µM (inactive)
11,COc1ccc(NS(=O)(=O)c2cc(NC(=O)CCc3nc4ccccc4s3)ccc2C)cc1,24.1 µM
12,Cn1c(=O)c2cc(C(=O)Nc3ccc(F)cc3)cnc2n(C)c1=O,20.8 µM
13,O=C(CSc1nc2cc(C(F)(F)F)ccc2s1)NCC(=O)c1ccccc1,6.5 µM
14,COc1cc(C(=O)NC(Cc2ccccc2)c2nc3ccccc3[nH]2)cc(OC)c1OC (stereo not given),3.77 µM
15,CC(=O)c1cccc(NC(=O)c2ccc(N3CCCCC3)nn2)c1,32.4 µM
16,Cn1ccc2c(cc(C(=O)NCCC3=CCCCC3)n2C)c1=O,21.1 µM
17,CCOC(=O)c1ccc(NC(=O)Cn2c(=O)n(CC(=O)NCc3ccco3)c(=O)c3ccccc32)cc1,2.31 µM
18,COc1cccc2cc(C(=O)Nc3ccc4c(c3)OCCO4)oc12,9.86 µM
19,Cc1ccccc1Cc1nc(-c2ccc(=O)[nH]c2)no1,0.946 µM
20,Cc1ccc2[nH]c(=O)c(-c3nc4ccc(C)cn4c3NCc3ccc(F)cc3)cc2c1,1.93 µM
21,Cc1ccc2nnc(-c3ccccc3)c(C(=O)N3CCN(c4ccccn4)CC3)c2c1,35 µM
22,Cc1cc(C)n(-c2ccc(C(=O)NCc3ccc(F)cc3)cn2)n1,19.7 µM
23,Cc1ccc(C)c(-n2c(C)cc(/C=C3/C(=N)N4C(c5ccc(F)cc5)=CSC4=NC3=O)c2C)c1,> 50 µM (inactive)
24,CN(C)Cc1ccc(C(=O)Nc2ccc(-c3nccs3)cc2)cc1,1.1 µM
25,COc1ccc(-c2[nH]c3ccccc3c2SCCNC(=O)c2ccc(S(=O)(=O)N3CCOCC3)cc2)cc1,30 µM

row,SMILES,IC50
1,Cc1cc(/C=C2/C(=N)N3C(c4ccccc4)=CSC3=NC2=O)c(C)n1-c1ccc2ccccc2c1,> 50 µM (inactive)
2,COC(=O)C1C(c2ccc(Cl)cc2Cl)C2(C(=O)c3ccccc3C2=O)C2C=Cc3ccccc3N12 (stereo not given),> 50 µM (inactive)
3,O=C(CCc1c[nH]c2ccccc12)Nc1ccc(N2CCOCC2)cc1,24.9 µM
4,O=C(C1CCCN(S(=O)(=O)N2CCCCCC2)C1)N1CCN(c2ccccc2)CC1 (stereo not given),> 50 µM (inactive)
5,CCCCNC(=O)c1cc2cccnc2n(Cc2ccccc2)c1=O,> 50 µM (inactive)
6,O=C(NCc1ccccc1)c1ccc(-c2ccc(N3CCCC3)nn2)cc1,> 50 µM (inactive)
7,Cc1cccc(OCCn2c(CCNC(=O)C3CCCCC3)nc3ccccc32)c1,21.6 µM
8,N#Cc1ccc(NC(=O)Nc2cccn(Cc3ccccc3F)c2=O)cc1,0.235 µM
9,CC(=O)c1ccc(NC(=O)C[n+]2cc(-c3ccc(Cl)cc3)n3c2CCC3)cc1,31.9 µM
10,CCc1cc(=O)n(CC(=O)Nc2cc(C)ccc2OC)c(N2CCOCC2)n1,26.2 µM
11,CC1=C(c2ccc(C)c(C)c2)S(=O)(=O)NC1=NCC(=O)NCCCc1ccccc1,25.5 µM
12,COc1cc(C)cc2c1C(=O)c1c(cc(O)c(Cl)c1O)C2=O,1.48 µM
13,COCCCNC(=O)c1ccc(Cn2c(=O)c3ccccc3n(CC(=O)NC3CCCCC3)c2=O)cc1,23.5 µM
14,COc1cc(NC(=O)c2ccc3c(c2)OCO3)ccc1-c1cc2ccccc2oc1=O,2.19 µM
15,CCn1ccc2c(cc(C(=O)Nc3cc(F)ccc3F)n2C)c1=O,2.22 µM
16,COc1cc([C@@H]2c3cc4c(cc3C[C@@H]3COC(=O)[C@H]32)OCO4)cc(OC)c1OC,18.7 µM
17,CCc1noc(-c2ccc(OCC(=O)Nc3ccc(C)cc3C)cc2)n1,33.7 µM
18,COc1c(O)c(O)c2c(=O)cc(-c3ccc(O)cc3)oc2c1OC,27.2 µM
19,COc1ccc(NC(=O)CN2CCN(c3ccc(C(C)=O)cc3)CC2)cc1S(=O)(=O)N1CCCCC1,40.4 µM
20,CNC(=O)c1cc2c(=O)n3cccc(C)c3nc2n1Cc1ccccc1,18.8 µM
21,COc1ccc(NC(=O)C2CCN(c3cncnc3N(C)C)CC2)cc1OC,6.74 µM
22,Cc1cc(C)cc(N(CCC(=O)Nc2ccc(N3CCOCC3)cc2)S(=O)(=O)c2ccc(Cl)cc2)c1,12.9 µM
23,Cc1ccc2c(c1)c(=O)c(C(=O)c1ccccc1)cn2CC(=O)Nc1ccccc1,15.4 µM
24,Fc1ccc(-c2noc(-c3nnc(NCc4cccnc4)c4ccccc34)n2)cc1,2.97 µM
25,Cc1ccc(NC(=O)CCC(=O)Nc2ccc3nc(N4CCCCC4)cc(C)c3c2)c(Br)c1,22.7 µM
